This assay deals with T1, Ileal Bile Acid Transporter Human (Homo sapiens, UniProt Q12908).
T1 construct: expressed in transfected cells; host or cells: HEK
T1 sequence (Q12908 1-348): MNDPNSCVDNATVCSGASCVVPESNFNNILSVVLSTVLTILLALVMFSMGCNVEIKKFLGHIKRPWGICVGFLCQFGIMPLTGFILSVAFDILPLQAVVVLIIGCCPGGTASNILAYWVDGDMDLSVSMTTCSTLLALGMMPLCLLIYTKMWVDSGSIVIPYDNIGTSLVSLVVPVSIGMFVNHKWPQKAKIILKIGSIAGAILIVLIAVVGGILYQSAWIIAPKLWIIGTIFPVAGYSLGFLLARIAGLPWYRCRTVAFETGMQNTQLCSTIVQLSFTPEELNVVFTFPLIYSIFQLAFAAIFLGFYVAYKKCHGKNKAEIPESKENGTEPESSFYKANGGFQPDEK
The assay can be described thus: ISBT Hu HEK Uptake SPA: Human HEK Glycocholic acid Uptake Radiometric SPA. Format: cell-based. The settings on record: human IBAT in HEK cells. The method, then: ISBT Hu HEK Uptake SPA 13203 IBAT HUM Ileal Bile Acid Transporter Human HEK Glycocholic acid Uptake Radiometric—SPA Inhibitor IC50 Mean IC50 (nM) was determined for the compounds of examples 1-14
As to `CCCCC1(CCCC)CN(c2ccccc2)c2cc(SC)c(OCC(=O)N[C@@H](C(=O)NCC(=O)O)c3ccccc3)cc2S(=O)(=O)N1` [Example 1, 1,1-Dioxo-3,3-dibutyl-5-phenyl-7-methylthio-8-(N-{(R)-α-[N-(carboxymethyl)carbamoyl]benzyl}carbamovlmethoxv)-2,3,4,5-tetrahvdro-1. 2. 5-benzothiadiazepine], it took 0.45 nM to reach half-maximal inhibition (IC50).
In turn, `CCCCC1(CCCC)CN(c2ccccc2)c2cc(SC)c(OCC(=O)N[C@@H](C(=O)N[C@@H](C)C(=O)O)c3ccccc3)cc2S(=O)(=O)C1` [Example 2, 1,1-Dioxo-3,3-dibutyl-5-phenyl-7-methylthio-8-(N-{(R)-α-[N′-((S)-1-carboxyethyl)carbamoyl]benzyl}carbamoylmethoxy)-2,3,4,5-tetrahydro-1,5-benzothiazepine] came in with an IC50 of 0.39 nM.
With `CCCCC1(CCCC)CN(c2ccccc2)c2cc(SC)c(OCC(=O)N[C@@H](C(=O)N[C@@H](CC)C(=O)O)c3ccccc3)cc2S(=O)(=O)N1` [Example 3, 1,1-Dioxo-3,3-dibutyl-5-phenyl-7-methylthio-8-(N-{(R)-α-[N-((S)-1-carboxypropyl)carbamoyl]benzyl}carbamoylmethoxy)-2,3,4,5-tetrahydro-1,2,5-benzothiadiazepine], the IC50 came out at 0.18 nM.
The result for `CCCCC1(CCCC)CN(c2ccccc2)c2cc(SC)c(OCC(=O)N[C@@H](C(=O)N[C@@H](CSC)C(=O)O)c3ccccc3)cc2S(=O)(=O)N1` [Example 4, 1,1-Dioxo-3,3-dibutyl-5-phenyl-7-methylthio-8-(N-{(R)-α-[N-((R)-1-carboxy-2-methylthioethyl)carbamoyl]benzyl}carbamoylmethoxy)-2,3,4,5-tetrahydro-1,2,5-benzothiadiazepine] reads 0.35 nM; that for `CCCCC1(CCCC)CN(c2ccccc2)c2cc(SC)c(OCC(=O)N[C@@H](C(=O)N[C@@H](CC)C(=O)O)c3ccc(O)cc3)cc2S(=O)(=O)N1` [Example 5, 1,1-Dioxo-3,3-dibutyl-5-phenyl-7-methylthio-8-(N-{(R)-α-[N-((S)-1-carboxypropyl)carbamoyl]-4-hydroxybenzyl}carbamoylmethoxy)-2,3,4,5-tetrahydro-1,2,5-benzothiadiazepine], 0.16 nM.
In turn, `CCCCC1(CCCC)CN(c2ccccc2)c2cc(SC)c(OCC(=O)N[C@@H](C(=O)N[C@H](C(=O)O)C(C)C)c3ccccc3)cc2S(=O)(=O)N1` [Example 7, 1,1-Dioxo-3,3-dibutyl-5-phenyl-7-methylthio-8-(N-{(R)-α-[N-((S)-1-carboxy-2-methylpropyl)carbamoyl]benzyl}carbamoylmethoxy)-2,3,4,5-tetrahydro-1,2,5-benzothiadiazepine] returned an IC50 of 0.36 nM.
As to `CCCCC1(CCCC)CN(c2ccccc2)c2cc(SC)c(OCC(=O)N[C@@H](C(=O)N[C@H](C(=O)O)[C@@H](C)O)c3ccc(O)cc3)cc2S(=O)(=O)N1` [Example 8, 1,1-Dioxo-3,3-dibutyl-5-phenyl-7-methylthio-8-(N-{(R)-α-[N-((S)-1-carboxy-2-(R)-hydroxypropyl)carbamoyl]-4-hydroxybenzyl}carbamoylmethoxy)-2,3,4,5-tetrahydro-1,2,5-benzothiadiazepine], the IC50 is 0.11 nM.
The result for `CCCCC1(CCCC)CN(c2ccccc2)c2cc(SC)c(OCC(=O)N[C@@H](C(=O)N[C@@H](C)C(=O)O)c3ccccc3)cc2S(=O)(=O)N1` [Example 10, 1,1-Dioxo-3,3-dibutyl-5-phenyl-7-methylthio-8-(N-{(R)-α-[N-((S)-1-carboxyethyl)carbamoyl]benzyl}carbamoylmethoxy)-2,3,4,5-tetrahydro-1,2,5-benzothiadiazepine] reads 0.2 nM; that for `CCCCC1(CCCC)CN(c2ccccc2)c2cc(SC)c(OCC(=O)N[C@@H](C(=O)N[C@@H](C)C(=O)O)c3ccc(O)cc3)cc2S(=O)(=O)N1` [Example 12], 0.3 nM.

Values taken from patent US20120114588A1, “IBAT INHIBITORS FOR TREATMENT OF METABOLIC DISORDERS AND RELATED CONDITIONS” (ALBIREO AB, priority 2010, published 2012).
